Columns and labels:
Experiment in all cases: General post-emergent herbicidal activity, foliar application
Format in all cases: in vivo
[1] = test system: Euphorbia heterophylla L. (poinsettia, wild); details: for pest or weed control at 280 g/ha: 280 g ai/ha; for pest or weed control at 140 g/ha: 140 g ai/ha; for GR80 Value EPHHL: calculated by probit analysis, dose for 80% visual injury, may be extrapolated
How it was run: (§1)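 Compounds in acetone/DMSO (97:3) were diluted into aqueous spray containing isopropyl alcohol, Atplus 411F crop oil and Triton X-155, then applied post-emergence to foliage at a top rate plus 1/2× to 1/16× serial dilutions. Injury was scored visually (0–100%) after 14 days in a sub-irrigated greenhouse versus untreated plants. GR20/GR50/GR80 were derived by probit analysis, with some GR80 values extrapolated from curve slope.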

[2] = test system: Echinochloa crus-galli (L.) Beauv. (barnyardgrass); details: for pest or weed control at 280 g/ha: 280 g ai/ha; for pest or weed control at 140 g/ha: 140 g ai/ha; for GR80 Value ECHCG: calculated by probit analysis, dose for 80% visual injury, may be extrapolated
How it was run: as §1

[3] = test system: Viola tricolor L. (pansy); details: for pest or weed control at 280 g/ha: 280 g ai/ha; for pest or weed control at 140 g/ha: 140 g ai/ha; for GR80 Value VIOTR: calculated by probit analysis, dose for 80% visual injury, may be extrapolated
How it was run: as §1

[4] = test system: Amaranthus retroflexus L. (pigweed, redroot); details: for pest or weed control at 280 g/ha: 280 g ai/ha; for pest or weed control at 140 g/ha: 140 g ai/ha; for GR80 Value AMARE: calculated by probit analysis, dose for 80% visual injury, may be extrapolated
How it was run: as §1

[5] = test system: Chenopodium album L. (lambsquarters, common); details: for pest or weed control at 280 g/ha: 280 g ai/ha; for pest or weed control at 140 g/ha: 140 g ai/ha; for GR80 Value CHEAL: calculated by probit analysis, dose for 80% visual injury, may be extrapolated
How it was run: as §1

[6] = test system: Helianthus annuus L. (sunflower, common); details: for pest or weed control at 280 g/ha: 280 g ai/ha; for pest or weed control at 140 g/ha: 140 g ai/ha; for GR80 Value HELAN: calculated by probit analysis, dose for 80% visual injury, may be extrapolated
How it was run: as §1

[7] = test system: Oryza sativa L. (rice); details: Oryza sativa, 336 h, scored after 14 days, read-out: % Visual Growth Reduction ORYSA; for plant injury at 280 g/ha: 280 g ai/ha; for plant injury at 140 g/ha: 140 g ai/ha
How it was run: (§2)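 Compounds in acetone/DMSO (97:3) diluted into aqueous spray with isopropanol, Atplus 411F crop oil and Triton X-155; top rate plus 1/2×–1/16× serial rates applied to foliage, solvent blank as control. Greenhouse, sub-irrigated; visual injury versus untreated plants scored 0–100% (100 = complete kill) after 14 days.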

[8] = test system: Zea mays L. (corn); details: 336 h, scored after 14 days, read-out: % Visual Growth Reduction ZEAMX; for plant injury at 280 g/ha: 280 g ai/ha; for plant injury at 140 g/ha: 140 g ai/ha
How it was run: as §2

[9] = Euphorbia heterophylla, 336 h, foliar post-emergent, scored after 14 days, read-out: % Visual Growth Reduction EPHHL
[10] = Echinochloa crus-galli, 336 h, foliar post-emergent, scored after 14 days, read-out: % Visual Growth Reduction ECHCG
[11] = Viola tricolor, 336 h, foliar post-emergent, scored after 14 days, read-out: % Visual Growth Reduction VIOTR
[12] = Amaranthus retroflexus, 336 h, foliar post-emergent, scored after 14 days, read-out: % Visual Growth Reduction AMARE
[13] = Chenopodium album, 336 h, foliar post-emergent, scored after 14 days, read-out: % Visual Growth Reduction CHEAL
[14] = Helianthus annuus, 336 h, foliar post-emergent, scored after 14 days, read-out: % Visual Growth Reduction HELAN

SMILES	pest or weed control at 280 g/ha [1, 9] [%]	pest or weed control at 280 g/ha [2, 10] [%]	pest or weed control at 280 g/ha [3, 11] [%]	pest or weed control at 280 g/ha [4, 12] [%]	pest or weed control at 280 g/ha [5, 13] [%]	pest or weed control at 280 g/ha [6, 14] [%]	plant injury at 280 g/ha [7] [%]	plant injury at 280 g/ha [8] [%]	pest or weed control at 140 g/ha [1, 9] [%]	pest or weed control at 140 g/ha [2, 10] [%]	pest or weed control at 140 g/ha [3, 11] [%]	pest or weed control at 140 g/ha [4, 12] [%]	pest or weed control at 140 g/ha [5, 13] [%]	pest or weed control at 140 g/ha [6, 14] [%]	plant injury at 140 g/ha [7] [%]	plant injury at 140 g/ha [8] [%]	GR80 Value EPHHL [1] [g ai/ha]	GR80 Value ECHCG [2] [g ai/ha]	GR80 Value VIOTR [3] [g ai/ha]	GR80 Value AMARE [4] [g ai/ha]	other results
COC(=O)c1nc(CCl)c(F)c(N)c1Cl [Compound F21, Methyl 4-amino-3-chloro-6-(chloromethyl)-5-fluoropicolinate]	0	0	0	0	0	0	0	0													
C=C(F)c1nc(C(=O)OC)c(Cl)c(N)c1F [Compound F22, methyl 4-amino-3-chloro-5-fluoro-6-(1-fluorovinyl)picolinate]	60	0	10	90	90	80	0	0	50	0	10	90	90	80	0	0					
CC(F)c1cc(N)c(Cl)c(C(=O)O)n1 (stereo not drawn) [Compound F24, 4-Amino-3-chloro-6-(1-fluoroethyl)picolinic acid]	95	90	100	100	100	80	10	10	90	80	100	100	100	75	0	0	122	165	36.7	12.3	pest or weed control at 35 g/ha ([1]; Euphorbia heterophylla, 336 h, 35 g ai/ha, foliar post-emergent, scored after 14 days, read-out: % Visual Growth Reduction EPHHL): 5%; pest or weed control at 70 g/ha ([1]; Euphorbia heterophylla, 336 h, 70 g ai/ha, foliar post-emergent, scored after 14 days, read-out: % Visual Growth Reduction EPHHL): 80%; pest or weed control at 35 g/ha ([2]; Echinochloa crus-galli, 336 h, 35 g ai/ha, foliar post-emergent, scored after 14 days, read-out: % Visual Growth Reduction ECHCG): 0%; pest or weed control at 70 g/ha ([2]; Echinochloa crus-galli, 336 h, 70 g ai/ha, foliar post-emergent, scored after 14 days, read-out: % Visual Growth Reduction ECHCG): 55%; pest or weed control at 35 g/ha ([3]; Viola tricolor, 336 h, 35 g ai/ha, foliar post-emergent, scored after 14 days, read-out: % Visual Growth Reduction VIOTR): 85%; pest or weed control at 70 g/ha ([3]; Viola tricolor, 336 h, 70 g ai/ha, foliar post-emergent, scored after 14 days, read-out: % Visual Growth Reduction VIOTR): 100%; pest or weed control at 35 g/ha ([4]; Amaranthus retroflexus, 336 h, 35 g ai/ha, foliar post-emergent, scored after 14 days, read-out: % Visual Growth Reduction AMARE): 90%; pest or weed control at 70 g/ha ([4]; Amaranthus retroflexus, 336 h, 70 g ai/ha, foliar post-emergent, scored after 14 days, read-out: % Visual Growth Reduction AMARE): 100%; pest or weed control at 35 g/ha ([5]; Chenopodium album, 336 h, 35 g ai/ha, foliar post-emergent, scored after 14 days, read-out: % Visual Growth Reduction CHEAL): 100%; pest or weed control at 70 g/ha ([5]; Chenopodium album, 336 h, 70 g ai/ha, foliar post-emergent, scored after 14 days, read-out: % Visual Growth Reduction CHEAL): 100%; GR80 Value CHEAL [5]: <17.5 g ai/ha; pest or weed control at 35 g/ha ([6]; Helianthus annuus, 336 h, 35 g ai/ha, foliar post-emergent, scored after 14 days, read-out: % Visual Growth Reduction HELAN): 50%; pest or weed control at 70 g/ha ([6]; Helianthus annuus, 336 h, 70 g ai/ha, foliar post-emergent, scored after 14 days, read-out: % Visual Growth Reduction HELAN): 65%; GR80 Value HELAN [6]: 199 g ai/ha; plant injury at 35 g/ha ([7]; 35 g ai/ha): 0%; plant injury at 70 g/ha ([7]; 70 g ai/ha): 0%; plant injury at 35 g/ha ([8]; 35 g ai/ha): 0%; plant injury at 70 g/ha ([8]; 70 g ai/ha): 0%
Nc1c(Cl)c(CF)nc(C(=O)O)c1Cl [Compound F25, 4-Amino-3,5-dichloro-6-(fluoromethyl)picolinic acid]	100	50	0	85	80	90	0	0	100	0	0	80	80	80	0	0	<17.5	373	>280	180	GR80 Value CHEAL [5]: 176 g ai/ha; GR80 Value HELAN [6]: 146 g ai/ha
